Laboratory results as given in patent publication US7288567B2, “Inhibitors of histone deacetylase” (Methylgene Inc., priority 2000, dated 2007).

Tests used:
[1] = biological target: T1, recombinant human HDAC-1 enzyme (rHDAC-1) (Homo sapiens, UniProt Q13547); assay: Histone deacetylase inhibition, recombinant human HDAC-1; type: biochemical; conditions: cloned recombinant human HDAC-1, Baculovirus insect cell expression; read-out: rHDAC-1 IC50
T1 construct: made in house; host or cells: Baculovirus insect cell expression system
T1 sequence (Q13547 whole entry): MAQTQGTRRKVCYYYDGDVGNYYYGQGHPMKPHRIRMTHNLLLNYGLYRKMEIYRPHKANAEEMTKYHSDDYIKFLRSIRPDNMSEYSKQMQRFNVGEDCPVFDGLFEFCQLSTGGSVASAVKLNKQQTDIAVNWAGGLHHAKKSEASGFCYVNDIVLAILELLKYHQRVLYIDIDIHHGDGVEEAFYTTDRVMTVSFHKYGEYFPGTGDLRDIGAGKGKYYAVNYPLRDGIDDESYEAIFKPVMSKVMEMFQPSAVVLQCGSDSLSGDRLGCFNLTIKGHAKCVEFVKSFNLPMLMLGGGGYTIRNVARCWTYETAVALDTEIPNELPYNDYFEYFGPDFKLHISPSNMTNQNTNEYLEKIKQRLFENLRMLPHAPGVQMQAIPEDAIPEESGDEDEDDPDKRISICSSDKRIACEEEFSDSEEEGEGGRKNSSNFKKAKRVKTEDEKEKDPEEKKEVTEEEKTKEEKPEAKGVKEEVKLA
Procedure: (§1) The reaction was stopped by adding acetic acid (0.04 M, final concentration) and HCl (250 mM, final concentration). The mixture was extracted with ethyl acetate and the released [^3H]-acetic acid was quantified by scintillation counting. For inhibition studies, the enzyme was preincubated with compounds at 4° C. for 30 minutes prior to initiation of the enzymatic assay. IC50 values for HDAC enzyme inhibitors were determined by performing dose response curves with individual compounds and determining the concentration of inhibitor producing fifty percent of the maximal inhibition.

[2] = test system: histone deacetylase enzyme in nuclear extracts from H446 cells (pooled HDACs); assay: Histone deacetylase inhibition, H446 nuclear extracts (pooled HDACs); type: biochemical, human; conditions: for pooled HDACs percent inhibition: percent inhibition at 20 μM (footnote); for IC50: H446 nuclear extract, [3H]-acetylated histone substrate
Procedure: HDAC inhibitors were screened against histone deacetylase enzyme in nuclear extracts prepared from the human small cell lung cancer cell line H446 (ATTC HTB-171) and against a cloned recombinant human HDAC-1 enzyme expressed and purified from a Baculovirus insect cell expression system.
as §1, with “For deacetylase assays, 20,000 cpm of the [^3H]-metabolically labeled acetylated histone substrate (M. Yoshida et al., J. Biol. Chem. 265(28): 17174-17179 (1990)) was incubated with 30 μg of H446 nuclear extract or an equivalent amount of the cloned recombinant hHDAC-1 for 10 minutes at 37° C. The reaction” for “The reaction”

Structure (SMILES)	IC50 [1]	IC50 [2]	pooled HDACs percent inhibition [2]	pooled HDACs percent inhibition @ 1 μM [2]	pooled HDACs percent inhibition @ 5 μM ([2]; @ 5 μM)
O=C(CCCCCCC(=O)c1ccc(-c2ccccc2)cc1)Nc1ccccc1O [Compound 74, N-(2-Hydroxyphenyl)-7-[(4-biphenyl)carbonyl]heptanamide]	7800 nM		0%		
Nc1ccccc1NC(=O)CCCCCCC(=O)c1ccc2ccccc2c1 [Compound 63, N-(2-Aminophenyl)-7-(2-naphthoyl)heptanamide]	2200 nM	> 20000 nM			
COC(C/C=C/C=C/C(=O)Nc1ccccc1N)c1ccccc1 (stereo not shown) [Compound 19, N-(2-Aminophenyl)-7-methoxy-7-phenyl-2,4-heptadienamide]	< 20000 nM	> 100000 nM			
O=C(CCCCCCC(=O)c1cc2ccccc2s1)NO [Compound 52m, N-hydroxy-7-(2-benzothiophene)carbonylheptanamide]	10 nM	100 nM			
COc1ccc(C(OC)C(C)(C)CCCCC(=O)NO)cc1 (stereo not shown) [Compound 28, N-Hydroxy-6,6-dimethyl-7-methoxy-7-(4-methoxyphenyl)heptanamide]	100 nM	4000 nM			
COc1ccc(C(=O)C(C)(C)CCCCC(=O)NO)cc1 [Compound 58, N-Hydroxy-6-methyl-6-(4-methoxybenzoyl)-heptanamide]	250 nM	3000 nM			
O=C(NCCCCCC(=O)c1ccc(-c2ccccc2)cc1)Nc1ccccc1O [Compound 93, N-(2-Hydroxyphenyl)-N′-[5-((4-biphenyl)carbonyl)pentyl]urea]	6400 nM		0%		
Cn1c(C(=O)CCCCCCC(=O)NO)cc2ccccc21 [Compound 103, N-Hydroxy-7-[2-((N-methyl)indolyl)carbonyl]heptanamide]	50 nM	100 nM			
COC(C/C=C/C=C/C(=O)NO)c1ccc(N(C)C)cc1 (stereo not shown) [Compound 17, N-Hydroxy7-methoxy-7-[4-(N,N-dimethylamino)phenyl]-2,4-heptadienamide]	250 nM	4000 nM			
O=C(CCCCCCC(=NO)c1ccccc1)NO [Compound 51a, N-Hydroxy-8-oximino-8-phenyloctanamide]	100 nM	350 nM			
Nc1ccccc1NC(=O)CCCCCCC(=O)c1cccc2ccccc12 [Compound 53f, N-(2-Aminophenyl)-7-(1-naphthoyl)heptanamide]	2000 nM		3%		
COc1ccc(/C(CCCCCCC(=O)NO)=N/O)cc1 [Compound 96, N-Hydroxy-8-(E)-oximino-8-(4-methoxyphenyl)octanamide]	35 nM	100 nM			
O=C(CCCCCCC(=O)c1ccc(Oc2ccccc2)cc1)NO [Compound 104, N-Hydroxy-7-(4-phenoxybenzoyl)heptanamide]	160 nM			61%@ 1 μM	
COc1ccc(C(=O)CCCCCCC(=O)Nc2ccccc2N)cc1 [Compound 53b, N-(2-Aminophenyl)-7-(p-anisoyl)heptanamide]	1000 nM		0%		
COc1ccc(NC(=O)CCCCCCC(=O)c2ccc(-c3ccccc3)cc2)c(N)c1 [Compound 81, N-(4-(3-Amino)anisole)-7-[(4-biphenyl)carbonyl]heptanamide]	25000 nM		27%		
O=C(CCCCCCC(=O)c1ccc2ccccc2c1)Nc1ccccc1O [Compound 66, N-(2-Hydroxyphenyl)-7-(2-naphthoyl)heptanamide]	2300 nM		0%		
Nc1ccccc1NC(=O)NCCCCCCC(=O)c1ccccc1 [Compound 89, N-(2-Aminophenyl)-N′-[6-(benzoyl)hexyl]urea]	16300 nM		0%		
COc1ccc(C(C/C=C/C=C/C(=O)NO)OC)cc1 (stereo not shown) [Compound 6, N-Hydroxy-7-methoxy-7-(4-methoxyphenyl)-2,4-heptadienamide]	250 nM	3000 nM			
Nc1ccccc1NC(=O)NCCCCCC(=O)c1ccc(-c2ccccc2)cc1 [Compound 92, N-(2-Aminophenyl)-N′-[5-((4biphenyl)carbonyl)pentyl]urea]	15900 nM		0%		
COc1ccc2cc(C(=O)CCCCCCC(=O)NO)ccc2c1 [Compound 105a, N-Hydroxy-7-[2-(6-methoxy)naphthoyl]heptanamide]	10 nM			83%@ 1 μM	
O=C(CCCCCC/C(=N\O)c1cc2ccccc2s1)NO [Compound 99, N-Hydroxy-8-(Z)-oximino-8-(2-benzo[b]thiophene)octanamide]	8 nM	35 nM			
O=C(CCCCCCC(=NO)c1ccco1)NO [Compound 51i, N-Hydroxy-8-oximino-8-(2-furanyl)octanamide]	100 nM	900 nM			
O=C(CCCCCCC(=O)c1ccco1)NO [Compound 52i, N-hydroxy-7-(2-furanoyl)-heptanamide]	100 nM	3000 nM			

Now from value to compound, other results behind:

IC50 [1]	IC50 [2]	Structure (SMILES)	pooled HDACs percent inhibition [2]	pooled HDACs percent inhibition @ 1 μM [2]	pooled HDACs percent inhibition @ 5 μM ([2]; @ 5 μM)
2300 nM		Nc1ccccc1NC(=O)CCCCCCC(=O)c1cc2ccccc2s1 [Compound 164, N-(2-Aminophenyl)-7-[(2-benzo[b]thiophene)carbonyl]heptanamide]	18%		
> 20000 nM		O=C(NCCCCCCC(=O)c1ccccc1)Nc1ccccc1O [Compound 253]	0%		
400 nM	300 nM	CC(=O)SCC(=O)CCCCCCC(=O)c1cc2ccccc2[nH]1 [Compound 167, 1-Acetylthio-2,9-dioxo-9-(2-indolyl)-nonane]			
130 nM		O=C(CCCCCC(=O)c1cc2ccccc2s1)NO [Compound 113, N-Hydroxy-6-[(2-benzo[b]thiophene)carbonyl]hexanamide]		33%@ 1 μM	
420 nM	50 nM	Cn1c(C(=O)CCCCCCC(=O)CS)cc2ccccc21 [Compound 166, 1-Mercapto-2,9-dioxo-9-(2-N-methylindolyl)-nonane]			
6300 nM	> 20000 nM	Nc1ccccc1NC(=O)CCCCCCC(=O)c1ccc(Br)cc1 [Compound 114, N-(2-Aminophenyl)-7-(4-bromobenzoyl)heptanamide]			
4 nM	20 nM	O=C(CCCCCCC(=O)c1ccc(Nc2ccccn2)cc1)NO [Compound 138d, N-Hydroxy-7-[4-(N-2-aminopyridyl)benzoyl]heptanamide]			
130 nM	80 nM	CC(=O)SCC(=O)CCCCCC(=O)c1cc2ccccc2s1 [Compound 160, 1-Acetylthio-2,8dioxo-8-(2-benzo[b]thiophene)-octane]			
50 nM		O=C(CCCCCn1cnc2ccccc2c1=O)NO [Compound 238a, N-Hydroxy-6-[3-(4-Oxo-4H-quinazolinyl)]hexanamide]		0%@ 1 μM	
4 nM	20 nM	O=C(CCCCCCC(=O)c1ccc(Nc2nccs2)cc1)NO [Compound 138e, N-Hydroxy-7-[4-(N-2-aminothiazolyl)benzoyl]heptanamide]			
100 nM	50 nM	CC(=O)SCC(=O)CCCCCCC(=O)c1ccccc1 [Compound 159a, 1-Acetylthio-2,9-dioxo-9-phenyl-nonane]			
1600 nM		Nc1ccccc1NC(=O)CCCCCN1C(=O)c2ccccc2C1=O [Compound 243a, N-(2-Aminophenyl)-6-(N-phthaloyl)hexanamide]	6%		
8100 nM		Nc1ccccc1NC(=O)CCCCCn1nnc2ccccc2c1=O [Compound 239b]	14%		
5000 nM	50000 nM	O=C(CCCCCCC(=O)c1ccccc1)CSc1ccccc1 [Compound 159d, 1-Phenylthio-2,9-dioxo-9-phenyl-nonane]			
50 nM	50 nM	O=C(CS)CCCCCCC(=O)c1ccccc1 [Compound 159e, 1-Mercapto-2,9-dioxo-9-phenyl-nonane]			
20 nM		CSc1ncccc1C(=O)CCCCCCC(=O)NO [Compound 105b]		40%@ 1 μM	
71 nM	94 nM	O=C(CS)CCCCCC(=O)c1cc2ccccc2s1 [Compound 161, 1-Mercapto-2,8-dioxo-8-(2-benzo[b]thiophene)-octane]			
60 nM		O=C(CCCCCCC(=O)c1cccnc1)NO [Compound 141a1, N-Hydroxy-7-[(3-pyridyl)carbonyl]heptanamide]		22%@ 1 μM	
> 20000 nM		O=C(CCCCCCC(=O)c1ccccc1)Nc1cccnc1 [Compound 252]	0%		
8 nM	49 nM	CN(c1ccccc1)c1ccc(C(=O)CCCCCCC(=O)NO)cc1 [Compound 138b, N-Hydroxy-7-[4-(N-methyl-N-phenyl)benzoyl]heptanamide]			
500 nM		CSCC(=O)CCCCCCC(=O)c1ccccc1 [Compound 159b, 1-Methylthio-2,9-dioxo-9-phenyl-nonane]			14%@ 5 μM
